# Marks after values point to notes of the source that are not given here.
# How the values were obtained:
# [1] = molecular target: T1, GLP-1R (Homo sapiens, UniProt P43220); test: In vitro cell activity, cAMP production in HEK293 cells expressing GLP-1R; assay type: cell-based; conditions: HEK293-GLP-1R cells, cAMP; read-out: GLP-1R (EC50)
# T1 construct: expressed in transfected cells; host or cells: HEK293 (HEK293-GLP-1R)
# Experimental: (§1) After they were completely thawed within 1.5 minutes, the cells were added dropwise into a 15 mL centrifuge tube containing 8 mL of warm culture medium in a clean bench. The tubes were centrifuged at 900 rpm for 5 minutes, the supernatant was discarded, and the cells were resuspended in 1 mL of complete culture medium (by pipetting 15 times). 20 µL of the suspension was immediately taken and mixed with an equal volume of trypan blue. 20 µL was taken to count the number of live cells, and the cells were diluted to 4×10^5 cells/mL with complete culture medium. • 4) The 384-well plate was divided into GLP-1R cell, GCGR cell and GIPR cell areas. The cell suspension was added to the wells of the corresponding area at 5 µL per well using a 12-channel variable-channel adjustable dispenser. […] Then, the diluted cAMP-d2 working solution and anti-cAMP-crytate working solution were mixed evenly in a ratio of 1:1, and 10 µL was added to each well of the sample group. The wells were covered with white lids and placed at room temperature in the dark for 1 hour or at 4 °C overnight. • 6) The fluorescence values at 665 nm and 620 nm were detected in a multifunctional microplate reader. In GraphPad Prism 6, the signal ratio and sample concentration were nonlinearly fitted using a four-parameter equation to obtain the EC50 value.
# [2] = molecular target: T2, GCGR (Homo sapiens, UniProt P47871); test: In vitro cell activity, cAMP production in HEK293 cells expressing GCGR; assay type: cell-based; conditions: HEK293-GCGR cells, cAMP; read-out: GCGR (EC50)
# T2 construct: expressed in transfected cells; host or cells: HEK293 (HEK293-GCGR)
# Experimental: as §1
# [3] = molecular target: T3, GIPR (Homo sapiens, UniProt P48546); test: In vitro cell activity, cAMP production in HEK293 cells expressing GIPR; assay type: cell-based; conditions: HEK293-GIPR cells, cAMP; read-out: GIPR (EC50)
# T3 construct: expressed in transfected cells; host or cells: HEK293 (HEK293-GIPR)
# T3 sequence (P48546 22-466): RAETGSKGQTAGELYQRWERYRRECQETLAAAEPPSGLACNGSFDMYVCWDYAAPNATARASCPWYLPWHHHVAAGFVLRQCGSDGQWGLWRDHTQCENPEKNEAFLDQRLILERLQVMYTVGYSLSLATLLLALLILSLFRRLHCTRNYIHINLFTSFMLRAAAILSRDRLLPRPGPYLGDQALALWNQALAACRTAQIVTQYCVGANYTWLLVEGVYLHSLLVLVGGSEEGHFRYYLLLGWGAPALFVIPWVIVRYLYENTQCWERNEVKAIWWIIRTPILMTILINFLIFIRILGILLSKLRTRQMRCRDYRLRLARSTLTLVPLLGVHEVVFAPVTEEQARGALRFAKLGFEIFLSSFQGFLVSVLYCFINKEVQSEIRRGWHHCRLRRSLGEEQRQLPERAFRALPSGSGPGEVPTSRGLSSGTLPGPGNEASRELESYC
# Experimental: as §1, with “The wells were covered with white lids and placed at room temperature in the dark for 1 hour or at 4 °C overnight. • 6) The fluorescence values at 665 nm and 620 nm were detected in a multifunctional microplate reader.” left out
# [4] = Long-term repeated administration in diet-induced obese C57BL/6 mice (DIO); assay type: in vivo, C57/BL6 mice
# Source text: Experimental methods: C57/BL6 mice were randomly divided into a normal group (NFD) and a model group (HFD) at the fifth week of age. The normal group was fed with ordinary maintenance feed, while the other groups were fed with high-fat feed D12492. The body weight and food intake of mice were monitored every 3 weeks. After 16 weeks of feeding, the body weights of mice in the model group and the normal group were (49.0±2.3) g and (31.0±2.0) g, respectively, and the difference between the two groups was statistically significant. […] Body weight and food intake were measured before each administration. After 3 weeks of administration, an intraperitoneal glucose tolerance test was performed. The mice were slaughtered and samples were collected 72 h after the last administration. The liver weight was recorded, and the liver pathological conditions and blood biochemical indexes of each group were tested.
# [5] = 10 nmol/kg s.c. once every 3 days, D7
# [6] = 10 nmol/kg s.c. once every 3 days, D10
# [7] = 10 nmol/kg s.c. once every 3 days, D13
# [8] = 10 nmol/kg s.c. once every 3 days, D16
# [9] = 10 nmol/kg s.c. once every 3 days, D19
# [10] = 10 nmol/kg s.c. once every 3 days, D22
# [11] = 10 nmol/kg s.c. once every 3 days, D25
# [12] = 10 nmol/kg s.c. once every 3 days, D28
# [13] = long-term administration 10 nmol/kg, 72 h after the last administration
# [14] = long-term administration 10 nmol/kg, blood biochemical index
# T2 sequence (P47871 26-477, species assumed): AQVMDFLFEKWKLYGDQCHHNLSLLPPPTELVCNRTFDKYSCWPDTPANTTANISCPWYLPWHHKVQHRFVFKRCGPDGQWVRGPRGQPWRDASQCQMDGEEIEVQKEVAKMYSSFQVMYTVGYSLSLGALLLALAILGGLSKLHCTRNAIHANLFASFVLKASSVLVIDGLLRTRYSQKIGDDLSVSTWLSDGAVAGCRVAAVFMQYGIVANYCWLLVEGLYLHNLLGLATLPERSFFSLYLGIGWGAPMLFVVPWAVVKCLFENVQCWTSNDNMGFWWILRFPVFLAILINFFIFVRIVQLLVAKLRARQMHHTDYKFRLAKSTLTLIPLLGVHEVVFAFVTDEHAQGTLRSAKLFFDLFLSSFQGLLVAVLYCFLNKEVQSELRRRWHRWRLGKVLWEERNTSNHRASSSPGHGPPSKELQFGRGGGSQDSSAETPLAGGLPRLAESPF
# T1 sequence (P43220 24-463, species assumed): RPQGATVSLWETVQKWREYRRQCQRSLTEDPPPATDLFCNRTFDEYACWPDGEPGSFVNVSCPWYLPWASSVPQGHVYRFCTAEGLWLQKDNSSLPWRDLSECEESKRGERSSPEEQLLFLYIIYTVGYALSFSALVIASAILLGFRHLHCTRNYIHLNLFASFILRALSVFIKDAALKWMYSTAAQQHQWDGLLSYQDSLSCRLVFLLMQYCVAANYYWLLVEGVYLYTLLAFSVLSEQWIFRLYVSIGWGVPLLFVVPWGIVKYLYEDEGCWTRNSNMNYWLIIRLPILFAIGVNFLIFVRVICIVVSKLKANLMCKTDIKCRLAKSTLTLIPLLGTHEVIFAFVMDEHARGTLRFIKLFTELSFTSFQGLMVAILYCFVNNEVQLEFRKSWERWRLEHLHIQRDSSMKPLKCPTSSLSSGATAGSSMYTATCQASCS
compound,measurement,setting,value
CC[C@H](C)[C@H](NC(=O)[C@H](Cc1ccccc1)NC(=O)[C@H](C)NC(=O)[C@H](CCCNC(=N)N)NC(=O)[C@H](CCC(N)=O)NC(=O)[C@H](C)NC(=O)[C@H](CCCCNC(=O)COCCOCCNC(=O)CC[C@H](NC(=O)CCCCCCCCCCCCCCCCCCC(=O)O)C(=O)O)NC(=O)[C@H](CCC(=O)O)NC(=O)[C@H](CC(=O)O)NC(=O)[C@H](CC(C)C)NC(=O)[C@H](CC(C)C)NC(=O)[C@@H](NC(=O)[C@H](CO)NC(=O)[C@H](Cc1ccc(O)cc1)NC(=O)[C@H](CC(=O)O)NC(=O)[C@H](CO)NC(=O)[C@@H](NC(=O)[C@](C)(Cc1ccccc1F)NC(=O)[C@@H](NC(=O)CNC(=O)[C@H](Cc1c[nH]cn1)NC(=O)C(C)(C)NC(=O)[C@@H](N)Cc1ccc(O)cc1)[C@@H](C)O)[C@@H](C)O)[C@@H](C)CC)C(=O)N[C@@H](CCC(=O)O)C(=O)N[C@@H](Cc1ccc(O)cc1)C(=O)N[C@@H](CC(C)C)C(=O)N[C@@H](CC(C)C)C(=O)N[C@@H](C)C(=O)NCC(=O)NCC(=O)N1CCC[C@H]1C(=O)N[C@@H](CO)C(=O)N[C@@H](CO)C(=O)NCC(=O)N[C@@H](C)C(=O)N1CCC[C@H]1C(=O)N1CCC[C@H]1C(=O)N1CCC[C@H]1C(=O)N[C@@H](CO)C(=O)O [HEC-PT83],EC50,[1],0.256 nM
same,EC50,[2],0.311 nM
same,EC50,[3],0.158 nM
CC[C@H](C)[C@H](NC(=O)[C@H](Cc1ccccc1)NC(=O)[C@H](C)NC(=O)[C@H](CCC(N)=O)NC(=O)[C@H](CCC(N)=O)NC(=O)[C@H](CCCNC(=N)N)NC(=O)[C@H](CCCCNC(=O)COCCOCCNC(=O)CC[C@H](NC(=O)CCCCCCCCCCCCCCCCC(=O)O)C(=O)O)NC(=O)[C@H](CCC(=O)O)NC(=O)[C@H](CC(=O)O)NC(=O)[C@H](CC(C)C)NC(=O)[C@H](CC(C)C)NC(=O)[C@@H](NC(=O)[C@H](CO)NC(=O)[C@H](Cc1ccc(O)cc1)NC(=O)[C@H](CC(=O)O)NC(=O)[C@H](CO)NC(=O)[C@@H](NC(=O)[C@](C)(Cc1ccccc1F)NC(=O)[C@@H](NC(=O)CNC(=O)[C@H](Cc1c[nH]cn1)NC(=O)C(C)(C)NC(=O)[C@@H](N)Cc1ccc(O)cc1)[C@@H](C)O)[C@@H](C)O)[C@@H](C)CC)C(=O)N[C@@H](CCC(=O)O)C(=O)N[C@@H](Cc1ccc(O)cc1)C(=O)N[C@@H](CC(C)C)C(=O)N[C@@H](CC(C)C)C(=O)N[C@@H](CCC(=O)O)C(=O)NCC(=O)NCC(=O)N1CCC[C@H]1C(=O)N[C@@H](CO)C(=O)N[C@@H](CO)C(=O)NCC(=O)N[C@@H](C)C(=O)N1CCC[C@H]1C(=O)N1CCC[C@H]1C(=O)N1CCC[C@H]1C(=O)N[C@@H](CO)C(=O)O [HEC-PT118],EC50,[1],1.2 nM
same,EC50,[2],0.221 nM
same,EC50,[3],0.128 nM
CC[C@H](C)[C@H](NC(=O)[C@H](Cc1ccccc1)NC(=O)[C@H](C)NC(=O)[C@H](CCCNC(=N)N)NC(=O)[C@H](CCC(N)=O)NC(=O)[C@H](C)NC(=O)[C@H](CCCCNC(=O)COCCOCCNC(=O)CC[C@H](NC(=O)CCCCCCCCCCCCCCCCCCC(=O)O)C(=O)O)NC(=O)[C@H](CCC(=O)O)NC(=O)[C@H](CC(=O)O)NC(=O)[C@H](CC(C)C)NC(=O)[C@H](CC(C)C)NC(=O)[C@@H](NC(=O)[C@H](CO)NC(=O)[C@H](Cc1ccc(O)cc1)NC(=O)[C@H](CC(=O)O)NC(=O)[C@H](CO)NC(=O)[C@@H](NC(=O)[C@](C)(Cc1ccccc1F)NC(=O)[C@@H](NC(=O)CNC(=O)[C@H](CCC(N)=O)NC(=O)C(C)(C)NC(=O)[C@@H](N)Cc1ccc(O)cc1)[C@@H](C)O)[C@@H](C)O)[C@@H](C)CC)C(=O)N[C@@H](CCC(=O)O)C(=O)N[C@@H](Cc1ccc(O)cc1)C(=O)N[C@@H](CC(C)C)C(=O)N[C@@H](CC(C)C)C(=O)N[C@@H](C)C(=O)NCC(=O)NCC(=O)N1CCC[C@H]1C(=O)N[C@@H](CO)C(=O)N[C@@H](CO)C(=O)NCC(=O)N[C@@H](C)C(=O)N1CCC[C@H]1C(=O)N1CCC[C@H]1C(=O)N1CCC[C@H]1C(=O)N[C@@H](CO)C(=O)O [HEC-PT95],EC50,[1],0.156 nM
same,EC50,[2],0.682 nM
same,EC50,[3],0.237 nM
semaglutide [reference compound],Cumulative food intake (g/pcs) D7,[4]; [5],14.1 g/pcs
same,Weight gain rate (%) D7,[4]; [5],-8.1±1.7%
same,Cumulative food intake (g/pcs) D10,[4]; [6],19.4 g/pcs
same,Weight gain rate (%) D10,[4]; [6],-10.8±2.2%
same,Cumulative food intake (g/each) D13,[4]; [7],25.2 g/each
same,Weight gain rate (%) D13,[4]; [7],-13.5±3.2%
same,Cumulative food intake (g/each) D16,[4]; [8],31.5 g/each
same,Weight gain rate (%) D16,[4]; [8],-14.2±3.8%
same,Cumulative food intake (g/each) D19,[4]; [9],38.1 g/each
same,Weight gain rate (%) D19,[4]; [9],-14.2±4.1%
same,Cumulative food intake (g/each) D22,[4]; [10],45.0 g/each
same,Weight gain rate (%) D22,[4]; [10],-14.5±4.5%
same,Cumulative food intake (g/each) D25,[4]; [11],51.6 g/each
same,Weight gain rate (%) D25,[4]; [11],-16.5±4.1%
same,Cumulative food intake (g/each) D28,[4]; [12],58.9 g/each
same,Weight gain rate (%) D28,[4]; [12],-18.5±5.1%
same,Cumulative food intake (g/each) D30,"[4]; 10 nmol/kg s.c. once every 3 days, D30",63.9^a g/each
same,Weight gain rate (%) D31,"[4]; 10 nmol/kg s.c. once every 3 days, D31",-17.4±4.9^a %
same,Cumulative food intake (g/pcs) D0,"[4]; 10 nmol/kg s.c., D0",2.6 g/pcs
same,Weight gain rate (%) D0,"[4]; 10 nmol/kg s.c., D0",0.0±0.0%
same,Cumulative food intake (g/pcs) D1,"[4]; 10 nmol/kg s.c., D1",2.9 g/pcs
same,Weight gain rate (%) D1,"[4]; 10 nmol/kg s.c., D1",-6.8±0.6%
same,Cumulative food intake (g/pcs) D2,"[4]; 10 nmol/kg s.c., D2",4.0 g/pcs
same,Weight gain rate (%) D2,"[4]; 10 nmol/kg s.c., D2",-7.1±1.1%
same,Cumulative food intake (g/pcs) D3,"[4]; 10 nmol/kg s.c., D3",6.4 g/pcs
same,Weight gain rate (%) D3,"[4]; 10 nmol/kg s.c., D3",-5.2±1.3%
same,Cumulative food intake (g/pcs) D4,"[4]; 10 nmol/kg s.c., D4",9.3 g/pcs
same,Weight gain rate (%) D4,"[4]; 10 nmol/kg s.c., D4",-3.8±1.3%
same,Liver index/%,[4]; [13],3.0±0.0^a %
same,Liver/g,[4]; [13],1.1±0.1^a g
same,Weight/g,[4]; [13],38.3±2.9^a g
same,ALT (U/L),[4]; [14],45.4±14.6^a U/L
same,AST (U/L),[4]; [14],131.2±19.2^a U/L
same,CHOL (mmol/L),[4]; [14],4.5±0.6^a mmol/L
same,TRIGL (mmol/L),[4]; [14],0.6±0.1^a mmol/L
